Test results from patent publication US20250115598A1 (Anaxis Pharma Pty Ltd, priority 2021, published 2025).
Like-named read-outs stand apart in the source and are kept apart here.

How the values were obtained:
human MLKL (full length) = human MLKL (full length) (Homo sapiens (Human), UniProt Q8NB16); assay: KINOMEscan binding assay, human MLKL (full length)
Method in brief: (§1)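 Active-site competition binding: DNA-tagged kinase (T7 phage fusion from BL21-derived E. coli lysate, or HEK-293-expressed) captured on immobilized-ligand beads, with bound kinase in the eluate quantified by qPCR. Compounds ran as 11-point 3-fold dilutions, 1% DMSO, top 30,000 nM for most. Kd came from a Hill fit (slope −1).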

human RIPK1 = human RIPK1 (Homo sapiens (Human), UniProt Q13546); assay: KINOMEscan binding assay, human RIPK1; settings: Table 21
Method in brief: as §1

human RIPK3 = human RIPK3 (Homo sapiens (Human), UniProt Q9Y572); assay: KINOMEscan binding assay, human RIPK3; settings: Table 21
Method in brief: as §1

[1] = system: U937 human histiocytic leukemia cell line; assay: Cellular assay: inhibition of TSQ induced necroptosis, CellTitre-Glo viability; settings: U937 cells, 48 hours, TSQ cocktail, read-out: Inhibition of TSQ-induced necroptosis (IC50 cell-based assay)
Method: Cellular Assay: Screening Compounds for Inhibition of TSQ Induced Necroptosis, 384 Well Plate Format.
(§2) • Cell Line ID: U937 human histiocytic leukemia cell line. • Cell Concentration (cells/well): Final cell density is 20000 cells per well. • Cell growth medium: HT-RPMI medium+7.4% Fetal Bovine Serum (FBS). Cells are cultured in Corning 150 cm^2 tissue culture flasks with vented caps at 37° C./5% CO2. • Incubation: Plates were incubated at 37° C./5% CO2 in a humidified incubator for 48 hours following addition of compounds and death stimuli (TSQ cocktail). • Compound concentration: 36 μM starting concentration, 1:3 dilution, 10 point • DMSO final concentration (% v/v): 0.3%. Compounds in TSQ Cocktail (T: TNF; S: Smac Mimetic; Q: Q-VD-OPh) and their Final Concentrations: • hTNF-Fc (100 ng/ml)—produced by standard procedures as shown in Bossen et al., J. Biol. Chem., 2006, 281(20), 13964-13971. • Compound A (500 nM)—Smac mimetic, Tetralogic and SYNthesis med chem • Q-VD-OPh (10 μM)—MP Biomedicals
(§3) The cellular assay was carried out according to the following steps: • 1. Each well was prepared by sequential addition of: • a. DMSO (control; columns 1-2 and 23-24) or compound in DMSO—addition was performed using acoustic transfer of nL volumes of stock compound to give final test concentrations of 36, 12, 4, 1.3, 0.44, 0.148, 0.049, 0.016, 0.005 and 0.002 μM. All wells were backfilled with DMSO to a final total volume in the well of 100 nL. • b. Following compound/DMSO addition in step (a), 40 μL of cell suspension (5×10^5 cells/mL) was added to provide a final cell concentration of 20,000 cells per well, and • c. Following cell addition in step (b), 10 μL of 5×TSQ cocktail (except to positive controls; columns 1 and 23) was added to each well. • 2. After 48 hours, plate was removed from the 37° C. incubator and equilibrated to room temperature for 45 minutes. • 3.15 μL of room temperature CellTitre-Glo2™ (Promega™) was added to each well. • 4. Shook plates for 2 minutes (˜600 rpm) and incubated at room temperature for 15 minutes to allow signal to stabilise. • 5. Read luminescence readout on a plate reader.
Percent viability was calculated for each compound according to equation (2):
(§4) • Assay involving the TSQ cocktail (T: TNF; S: Smac mimetic; Q: Q-VD-OPh): TSQ treatment ensures that cells specifically undergo necroptotic cell death. TNF activates the TNF receptor, Smac mimetic directs the signal away from proinflammatory signaling and toward the RIPK1/RIPK3-mediated cell death pathways, and Q-VD-OPh ensures that the apoptotic response is blocked leaving only the programmed necrosis response. The compounds' activity (solution in DMSO) tested in this TSQ-induced assay was evaluated by determining the number of viable cells in culture by measuring the amount of ATP present as measured by CelltiterGlo. • Counter screen: In parallel, all compounds were tested for their ability to affect cell viability. The same U937 cells were treated with compound in DMSO without the TSQ cocktail. This counter screen enabled evaluation of off-target effects. In this case, cell viability was measured by CelltiterGlo.

U937 cells = assay: Counter screen: cell viability without the TSQ cocktail (off-target effect); set-up: species or system human
Method: as §2, §3, §4

[2] = system: Immortalised Mouse Dermal Fibroblasts (MDFs); assay: Cellular assay: inhibition of TSI induced necroptosis, CellTitre-Glo viability; settings: Mus musculus, Fibroblast, MDF, 3 hours TSI cocktail, read-out: Inhibition of TSI-induced necroptosis (IC50 cell-based assay) in MDF
Method in brief: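 Necroptosis induced for 3 h with TSI: rhTNF 100 ng/ml, Smac mimetic 500 nM, caspase inhibitor IDN-6556 10 μM. Mouse dermal fibroblasts had received compound (36 μM top, ten three-fold steps) 30 min beforehand. ATP-based viability scaled between untreated and TSI-only wells; IC50 taken as 4-parameter curve inflection.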

[3] = KINOMEscan, Table 21, read-out: Human MLKL (full-length) (KD)
[4] = Homo sapiens, U-937, Table 23, read-out: Off-target effect (IC50 cell-based assay)
[5] = Table 23, read-out: Off-target effect (IC50 cell-based assay)
[6] = Homo sapiens, U-937, Table 26, read-out: Off-target effect (IC50 cell-based assay)
[7] = hMLKL, Table 25, read-out: MLKL (KD)

Chain of human RIPK1 (Q13546 whole entry): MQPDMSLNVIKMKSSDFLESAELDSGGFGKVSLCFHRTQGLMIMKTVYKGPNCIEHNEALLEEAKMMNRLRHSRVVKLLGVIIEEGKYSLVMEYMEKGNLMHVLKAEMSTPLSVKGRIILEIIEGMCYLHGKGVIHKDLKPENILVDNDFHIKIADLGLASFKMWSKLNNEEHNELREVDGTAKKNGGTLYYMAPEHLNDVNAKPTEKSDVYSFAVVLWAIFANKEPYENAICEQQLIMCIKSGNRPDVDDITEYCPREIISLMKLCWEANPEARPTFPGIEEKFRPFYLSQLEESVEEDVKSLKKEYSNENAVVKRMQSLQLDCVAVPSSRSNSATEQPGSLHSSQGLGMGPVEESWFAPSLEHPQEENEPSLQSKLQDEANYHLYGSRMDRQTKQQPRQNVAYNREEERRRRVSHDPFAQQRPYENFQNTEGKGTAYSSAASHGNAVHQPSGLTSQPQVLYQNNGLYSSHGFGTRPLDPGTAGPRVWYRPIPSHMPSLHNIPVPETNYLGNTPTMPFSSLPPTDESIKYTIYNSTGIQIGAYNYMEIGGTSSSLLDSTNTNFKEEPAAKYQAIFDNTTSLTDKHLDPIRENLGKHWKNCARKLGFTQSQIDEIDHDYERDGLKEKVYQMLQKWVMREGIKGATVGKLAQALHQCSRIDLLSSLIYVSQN
Chain of human MLKL (full length) (Q8NB16 whole entry, the tested form may be a part): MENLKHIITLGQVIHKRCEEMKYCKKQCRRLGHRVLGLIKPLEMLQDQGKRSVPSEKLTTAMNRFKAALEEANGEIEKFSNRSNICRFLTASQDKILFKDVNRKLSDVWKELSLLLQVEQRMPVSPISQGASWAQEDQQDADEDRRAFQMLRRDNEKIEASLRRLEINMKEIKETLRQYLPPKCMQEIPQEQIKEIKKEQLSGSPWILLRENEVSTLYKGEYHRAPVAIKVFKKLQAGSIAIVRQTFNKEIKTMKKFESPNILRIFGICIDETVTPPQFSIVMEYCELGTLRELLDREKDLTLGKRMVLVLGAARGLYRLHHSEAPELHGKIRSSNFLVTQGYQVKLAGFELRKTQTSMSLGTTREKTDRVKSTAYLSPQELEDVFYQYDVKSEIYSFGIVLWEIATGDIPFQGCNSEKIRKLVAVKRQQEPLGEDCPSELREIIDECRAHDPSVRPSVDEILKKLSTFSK
Chain of human RIPK3 (Q9Y572 whole entry): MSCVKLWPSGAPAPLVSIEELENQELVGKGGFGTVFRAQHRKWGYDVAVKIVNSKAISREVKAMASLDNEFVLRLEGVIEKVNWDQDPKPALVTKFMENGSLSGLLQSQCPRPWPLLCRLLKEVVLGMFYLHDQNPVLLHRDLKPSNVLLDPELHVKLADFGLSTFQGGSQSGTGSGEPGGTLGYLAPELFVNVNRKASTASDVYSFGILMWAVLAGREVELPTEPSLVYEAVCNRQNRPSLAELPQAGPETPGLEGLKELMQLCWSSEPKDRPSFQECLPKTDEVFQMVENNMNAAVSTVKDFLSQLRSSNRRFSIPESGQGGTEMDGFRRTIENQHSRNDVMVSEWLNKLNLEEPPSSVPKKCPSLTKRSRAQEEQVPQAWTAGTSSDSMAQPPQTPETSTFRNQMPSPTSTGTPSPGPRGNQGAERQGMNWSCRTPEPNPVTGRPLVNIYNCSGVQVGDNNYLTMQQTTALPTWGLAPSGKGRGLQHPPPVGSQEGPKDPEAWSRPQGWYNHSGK

SMILES	Kd (human MLKL (full length); [3]) [µM]	Kd (human RIPK1) [µM]	Kd (human RIPK3) [µM]	IC50 ([1]; Homo sapiens, U-937, Table 23) [µM]	IC50 (U937 cells; [4]) [µM]	IC50 ([1]; Homo sapiens, U-937, Table 26) [µM]	IC50 (U937 cells; [6]) [µM]	Kd (human MLKL (full length); [7]) [µM]	further results
CCS(=O)(=O)Nc1ccc(-c2nn(C)c3c(-c4ccncc4)cnc(N)c23)cc1OCc1ccc(F)cc1 [Compound 1, N-(4-(4-amino-1-methyl-7-(pyridin-4-yl)-1H-pyrazolo[4,3-c]pyridin-3-yl)-2-((4-fluorobenzyl)oxy)phe-nyl)ethanesulfonamide]	0.001 to 0.1	> 10	> 10	1 to 10	> 10				
C[C@H](Oc1cc(-c2nn(C)c3c(-c4ccc(N5CCNCC5)nc4)cnc(N)c23)ccc1NS(=O)(=O)C(F)F)c1ccc(F)cc1 [Compound 108]	< 0.001	> 10	> 10						IC50 ([1]; Table 23): 0.01 to 1 µM; IC50 (U937 cells; [5]): > 10 µM
CNc1ncc(-n2cc(-c3cnc(N)c4c(-c5ccc(NS(=O)(=O)C(F)F)c(O[C@@H](C)c6ccc(F)cc6)c5)nn(C)c34)cn2)cn1 [Compound 138, (S)-N-(4-(4-amino-1-methyl-7-(1-(2-(methylamino)pyrimidin-5-yl)-1H-pyrazol-4-yl)-1H-pyrazolo[4,3-c]pyridin-3-yl)-2-(1-(4-fluorophenyl)ethoxy)phenyl)-1,1-difluoromethanesulfonamide]	0.001 to 0.1	> 10	> 10						IC50 ([1]; Table 23): 0.01 to 1 µM; IC50 (U937 cells; [5]): > 10 µM
C[C@H](Oc1cc(-c2nn(C)c3c(-c4cnn([C@@H]5CCN(C)C(C)(C)C5)c4)cnc(N)c23)ccc1NS(=O)(=O)C(F)F)c1ccc(F)cc1 (single isomer, unassigned) [Compound 154, N-(4-(4-amino-1-methyl-7-(1-((R*)-1,2,2-trimethylpiperidin-4-yl)-1H-pyrazol-4-yl)-1H-pyrazolo[4,3-c]pyridin-3-yl)-2-((S)-1-(4-fluorophenyl)ethoxy)phenyl)-1,1-difluoromethanesulfonamide]		> 10	> 10	< 0.01	> 10				
Cc1ncsc1-c1ccc(CNC(=O)[C@@H]2C[C@@H](O)CN2C(=O)[C@@H](NC(=O)CN2CCC(n3cc(-c4cnc(N)c5c(-c6ccc(NS(=O)(=O)C(F)F)c(O[C@@H](C)c7ccc(F)cc7)c6)nn(C)c45)cn3)CC2)C(C)(C)C)cc1 [Compound 1016, (2S,4R)-1-[(2S)-2-{2-[4-(4-{4-amino-3-[4-(difluoromethanesulfonamido)-3-[(1S)-1-(4-fluorophenyl)ethoxy]phenyl]-1-methyl-1H-pyrazolo[4,3-c]pyridin-7-yl}-1H-pyrazol-1-yl)piperidin-1-yl]acetamido}-3,3-dimethylbutanoyl]-4-hydroxy-N-{[4-(4-methyl-1,3-thiazol-5-yl)phenyl]methyl}pyrrolidine-2-carboxamide]						< 1	> 10		IC50 ([2]; Table 27): < 1 µM
CCS(=O)(=O)Nc1ccc(-c2n[nH]c3c(-c4cnn(CCOCC(=O)N[C@H](C(=O)N5C[C@H](O)C[C@H]5C(=O)NCc5ccc(-c6scnc6C)cc5)C(C)(C)C)c4)cnc(N)c23)cc1OCc1ccc(F)cc1 [Compound 1004, (2S,4R)-1-[(2S)-2-(2-{2-[4-(4-amino-3-{4-ethanesulfonamido-3-[(4-fluorophenyl)methoxy]phenyl}-1H-pyrazolo[4,3-c]pyridin-7-yl)-1H-pyrazol-1-yl]ethoxy}acetamido)-3,3-dimethylbutanoyl]-4-hydroxy-N-{[4-(4-methyl-1,3-thiazol-5-yl)phenyl]methyl}pyrrolidine-2-carboxamide]						> 10	> 10	< 0.01	
Cc1ncsc1-c1ccc(CNC(=O)[C@@H]2C[C@@H](O)CN2C(=O)[C@@H](NC(=O)COCCN2CCC(n3cc(-c4cnc(N)c5c(-c6ccc(NS(=O)(=O)C(F)F)c(O[C@@H](C)c7ccc(F)cc7)c6)nn(C)c45)cn3)C2)C(C)(C)C)cc1 (stereo partly drawn) [Compound 1013, (2S,4R)-1-[(2S)-2-(2-{2-[3-(4-{4-amino-3-[4-(difluoromethanesulfonamido)-3-[(1S)-1-(4-fluorophenyl)ethoxy]phenyl]-1-methyl-1H-pyrazolo[4,3-c]pyridin-7-yl}-1H-pyrazol-1-yl)pyrrolidin-1-yl]ethoxy}acetamido)-3,3-dimethylbutanoyl]-4-hydroxy-N-{[4-(4-methyl-1,3-thiazol-5-yl)phenyl]methyl}pyrrolidine-2-carboxamide]						1 to 10	> 10	< 0.01	
CCS(=O)(=O)Nc1ccc(-c2n[nH]c3c(-c4cnn(CCC(=O)N[C@H](C(=O)N5C[C@H](O)C[C@H]5C(=O)NCc5ccc(-c6scnc6C)cc5)C(C)(C)C)c4)cnc(N)c23)cc1OCc1ccc(F)cc1 [Compound 1001, (2S,4R)-1-[(2S)-2-{3-[4-(4-amino-3-{4-ethanesulfonamido-3-[(4-fluorophenyl)methoxy]phenyl}-1H-pyrazolo[4,3-c]pyridin-7-yl)-1H-pyrazol-1-yl]propanamido}-3,3-dimethylbutanoyl]-4-hydroxy-N-{[4-(4-methyl-1,3-thiazol-5-yl)phenyl]methyl}pyrrolidine-2-carboxamide]						> 10	> 10	< 0.01	
C[C@H](Oc1cc(-c2nn(C)c3c(-c4cnn(C5CCN(C)C(C)(C)C5)c4)cnc(N)c23)ccc1NS(=O)(=O)C(F)F)c1ccc(F)cc1 (single isomer, unassigned) [Compound 155, N-(4-(4-amino-1-methyl-7-(1-((S*)-1,2,2-trimethylpiperidin-4-yl)-1H-pyrazol-4-yl)-1H-pyrazolo[4,3-c]pyridin-3-yl)-2-((S)-1-(4-fluorophenyl)ethoxy)phenyl)-1,1-difluoromethanesulfonamide]				< 0.01	> 10				IC50 ([2]; Table 24): < 1 µM
